Data from PMC10607100, “Anticancer and Antiphytopathogenic Activity of Fluorinated Isatins and Their Water-Soluble Hydrazone Derivatives” (International Journal of Molecular Sciences, 2023).
Like-named read-outs stand apart in the source and are kept apart here.

Assays:
[1] = test system: five representative phytopathogens; test: Agar-well diffusion, bactericidal activity over the panel of phytopathogens; type: cell-based
Method in brief: (§1)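 Bacteria spread on agar (BP medium; GYCa for X. campestris; pH 7.2–7.4) with 6-mm wells, each receiving 150 μL compound solution. Cultures grown at 28 °C; growth-inhibition zone width measured after 36–40 h.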

[2] = test system: Micrococcus luteus B-109; test: Agar-well diffusion, bactericidal activity; type: cell-based; conditions: Micrococcus luteus
Method in brief: as §1

[3] = test system: Pseudomonas fluorescens EL-2.1; test: Agar-well diffusion, bactericidal activity; type: cell-based; conditions: Pseudomonas fluorescens, EL2.1, 2 mM/L
Method in brief: as §1

[4] = test system: Pectobacterium atrosepticum 1043; test: Agar-well diffusion, bactericidal activity; type: cell-based; conditions: Pectobacterium atrosepticum, 1043, 2 mM/L
Method in brief: as §1

[5] = test system: Pectobacterium carotovorum subsp. carotovorum MI; test: Agar-well diffusion, bactericidal activity; type: cell-based; conditions: Pectobacterium carotovorum, 2 mM/L
Method in brief: as §1

[6] = test system: Xanthomonas campestris B-610; test: Agar-well diffusion, bactericidal activity; type: cell-based; conditions: Xanthomonas campestris
Method in brief: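 Agar-well diffusion on GYCa agar (pH 7.2–7.4) seeded with bacterial suspension; 150 μL compound solution placed in 6-mm wells. Inhibition zone width measured after 36–40 h incubation.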

[7] = test system: Fusarium oxysporum IBPPM 543; test: Mycelial radial growth inhibition; type: cell-based; conditions: Fusarium oxysporum; for inhibition of growth at 1 µM: 1 nmol/mL; for inhibition of growth at 1 µM / inhibition of growth at 5 µM / inhibition of growth at 20 µM / inhibition of growth at 40 µM: read-out: Inhibition value, I (%); for inhibition of growth at 5 µM: 5 nmol/mL; for inhibition of growth at 20 µM: 20 nmol/mL; for inhibition of growth at 40 µM: 40 nmol/mL
Method in brief: (§2)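 Compounds mixed into molten GPY agar at various concentrations; centre inoculated with a 5-mm mycelial plug from 10-day cultures and incubated at 27 °C. Colony diameter compared with untreated control until control plate was covered (usually 12 days); ≥4 replicates in two experiments.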

[8] = test system: Phytophthora cactorum VKM F-985; test: Mycelial radial growth inhibition; type: cell-based; conditions: for inhibition of growth at 2 µM: 2 nmol/mL; for inhibition of growth at 2 µM / inhibition of growth at 3 µM / inhibition of growth / inhibition of growth at 40 µM / inhibition of growth at 50 µM: read-out: Inhibition value, I (%); for inhibition of growth at 3 µM: 3 nmol/mL; for inhibition of growth: 27 nmol/mL; for inhibition of growth at 40 µM: 40 nmol/mL; for inhibition of growth at 50 µM: 50 nmol/mL
Method in brief: as §2

[9] = Table S3, read-out: Inhibition zone width (mm), not less
[10] = IBPPM543, 72 h, age of the fungus 3 days
[11] = IBPPM543, 120 h, age of the fungus 5 days
[12] = IBPPM543, 168 h, age of the fungus 7 days
[13] = IBPPM543, 216 h, age of the fungus 9 days
[14] = Phytophthora cactorum, 72 h, age of the fungus 3 days
[15] = Phytophthora cactorum, 120 h, age of the fungus 5 days
[16] = Phytophthora cactorum, 168 h, age of the fungus 7 days
[17] = Phytophthora cactorum, 216 h, age of the fungus 9 days

melting point: 180 to 182 °C
EC50 ([7]; IBPPM543, 120 h, day 5, read-out: EC50, µg/mL at Day 5, F. oxysporum): 13.8 µg/mL
EC50 ([8]; Phytophthora cactorum, 120 h, day 5, read-out: EC50, µg/mL at Day 5, P. cactorum): 15 µg/mL
EC50, µg/mL at Day 5, P. cactorum ([8]; day 5): 15.12 µg/mL
Structure (SMILES): O=C(C[n+]1ccccc1)NN=C1C(=O)N(Cc2ccccc2F)c2ccc(F)cc21.[Cl-] [Compound 5a, 1-(2-(2-(5-Fluoro-1-(2-fluorobenzyl)-2-oxoindolin-3-ylidene)hydrazinyl)-2-oxoethyl)pyridin-1-ium chloride]
zone of inhibition at 2000 µM ([1]; 36 h, 2 mM solutions, dependent on the test system used, read-out: inhibition zone width (mm), range over the test systems): 3 to 6 mm
bactericidal activity ([1]; Table S2): moderate bactericidal activity
zone of inhibition at 2000 µM ([2]; B109, 2 mM/L, average of 3 experiments, read-out: width of the inhibition zone (mm), M. luteus): 4 mm
zone of inhibition at 2000 µM ([2]; B109, Table S3, 2 mM/L, read-out: Inhibition zone width (mm), not less): ≥ 4 mm
zone of inhibition at 2000 µM ([3]; average of 3 experiments, read-out: width of the inhibition zone (mm), Ps. fluorescens): 4 mm
zone of inhibition at 2000 µM [3, 9]: ≥ 4 mm
zone of inhibition at 2000 µM ([4]; average of 3 experiments, read-out: width of the inhibition zone (mm), P. atrosepticum): 6 mm
zone of inhibition at 2000 µM [4, 9]: ≥ 6 mm
zone of inhibition at 2000 µM ([5]; average of 3 experiments, read-out: width of the inhibition zone (mm), P. carotovorum subsp. carotovorum): 3 mm
zone of inhibition at 2000 µM [5, 9]: ≥ 3 mm
zone of inhibition at 2000 µM ([6]; B610, 2 mM/L, average of 3 experiments, read-out: width of the inhibition zone (mm), X. campestris): 3.5 mm
zone of inhibition at 2000 µM ([6]; B610, Table S3, 2 mM/L, read-out: Inhibition zone width (mm), not less): ≥ 3 mm
inhibition of growth at 1 µM [7, 10]: 34%
inhibition of growth at 5 µM [7, 10]: 39%
inhibition of growth at 20 µM [7, 10]: 41%
inhibition of growth at 40 µM [7, 10]: 52%
inhibition of growth at 1 µM [7, 11]: 25%
inhibition of growth at 5 µM [7, 11]: 31%
inhibition of growth at 20 µM [7, 11]: 45%
inhibition of growth at 40 µM [7, 11]: 54%
inhibition of growth at 1 µM [7, 12]: 20%
inhibition of growth at 5 µM [7, 12]: 23%
inhibition of growth at 20 µM [7, 12]: 42%
inhibition of growth at 40 µM [7, 12]: 51%
inhibition of growth at 1 µM [7, 13]: 7%
inhibition of growth at 5 µM [7, 13]: 18%
inhibition of growth at 20 µM [7, 13]: 23%
inhibition of growth at 40 µM [7, 13]: 36%
antagonistic effect superior to that of N-cetylpyridinium chloride ([8]; 5 days of growth): 2.3 times
antagonistic effect superior to that of fludioxonil ([8]; 5 days of growth): 2.0 times
inhibition of growth at 2 µM [8, 14]: 26%
inhibition of growth at 3 µM [8, 14]: 32%
inhibition of growth [8, 14]: 40%
inhibition of growth at 40 µM [8, 14]: 47%
inhibition of growth at 50 µM [8, 14]: 52%
inhibition of growth at 2 µM [8, 15]: 20%
inhibition of growth at 3 µM [8, 15]: 32%
inhibition of growth [8, 15]: 44%
inhibition of growth at 40 µM [8, 15]: 53%
inhibition of growth at 50 µM [8, 15]: 62%
inhibition of growth at 2 µM [8, 16]: 15%
inhibition of growth at 3 µM [8, 16]: 28%
inhibition of growth [8, 16]: 31%
inhibition of growth at 40 µM [8, 16]: 43%
inhibition of growth at 50 µM [8, 16]: 45%
inhibition of growth at 2 µM [8, 17]: 8%
inhibition of growth at 3 µM [8, 17]: 19%
inhibition of growth [8, 17]: 25%
inhibition of growth at 40 µM [8, 17]: 36%
inhibition of growth at 50 µM [8, 17]: 38%
